Assay results as given in patent publication US20230023463A1, “COMPOSITION FOR PROMOTING HAIR THICKENING, COMPOSITION FOR SUSTAINING GROWTH PHASE IN HAIR CYCLE AND COMPOSITION FOR PROMOTING VEGF PRODUCTION, COMPOSITION FOR PROMOTING TRANSITION FROM RESTING PHASE TO GROWTH PHASE IN HAIR CYCLE AND COMPOSITION FOR PROMOTING FGF7 PRODUCTION, AND COMPOSITION FOR …” (priority 2020, published 2023).

Key:
Assay type in all cases: cell-based
[1] = system: human hair papilla cells; experiment: Proliferation of hair papilla cells, citrulline (Cell Counting kit-8); conditions: 2 mM, cultured one day, P<0.01, FIG. 5
Description: In the same manner as in Experimental Example 1, human hair papilla cells were cultured for 4 days, and seeded on a collagen-coated 96 well plate at a cell density of 2.5×10^3 cells/0.1 mL/well. The cells were cultured for one day in a carbon dioxide incubator (5 volume % carbon dioxide, 37° C.), and used for the evaluation of the proliferation of hair papilla cells. For the evaluation of the proliferation of hair papilla cells, the same evaluation medium as used in Experimental Example 1 was used.
L-citrulline was dissolved in the evaluation medium to prepare a solution.
In the above-mentioned hair papilla cell culture medium on the collagen-coated plate, the medium was replaced with the evaluation medium, the above-mentioned solution of L-citrulline was added to a concentration of 2 mM, and the cells were cultured for one day at 37° C., 5 volume % carbon dioxide (n=7).
Then the Cell Counting kit-8 (DOJINDO LABORATORIES) was added to each well by 10 μL, the plate was placed in a carbon dioxide incubator (5 volume % carbon dioxide, 37° C.) for 2 hr, and the absorbance at 450 nm was measured using a microplate reader.
Similar culture and treatment were performed without adding the solution of L-citrulline and used as the control.
The measurement results were converted to relative values (%) with the absorbance in the control as 100, and shown as mean±standard error in FIG. 5.

[2] = system: VEGF production in hair papilla cells; experiment: VEGF production in hair papilla cells (ELISA of culture supernatant); conditions: human hair papilla cells, cultured 3 days, vs control
Description: Using a papilla cell growth medium (PCGM) (Toyobo Co., Ltd.), human hair papilla cells (Toyobo Co., Ltd.) were cultured for 4 days on a collagen-coated dish, and seeded on a collagen-coated 48 well plate at a cell density of 1.2×10^4 cells/0.3 mL/well. The cells were cultured for one day in a carbon dioxide incubator (5 volume % carbon dioxide, 37° C.), and used for the evaluation of the VEGF production amount.
For the evaluation of the VEGF production amount, 20 kinds of amino acids were mixed at the composition shown in Table 1, the components other than amino acids were composed as in Dulbecco's modified Eagle medium (DMEM), glucose was added at 1 g/L, and the resulting medium was used as an evaluation medium.
L-citrulline, L-tryptophan, and L-glutamine were respectively dissolved in the evaluation medium to prepare each solution.
In the above-described hair papilla cell culture medium on the collagen-coated plate, the medium was replaced with the evaluation medium, the above-described respective solutions of L-citrulline, L-tryptophan, and L-glutamine were added at a given concentration, and the cells were cultured for 3 days at 37° C., 5 volume % carbon dioxide (n=4 for L-citrulline, L-tryptophan, and L-glutamine at each addition concentration).
(§1) Then, the supernatant of the culture medium was collected, centrifuged at 1500 rpm, and the supernatant was collected and cryopreserved at −30° C.
Similar culture and treatment were performed without adding each solution of L-citrulline, L-tryptophan, and L-glutamine and used as the control.
The concentration of VEGF in the supernatant of the culture was measured by thawing the collected supernatant and using the VEGF Enzyme-Linked ImmunoSorbent Assay (ELISA) kit (Abcam Plc.).
The measurement results were converted to relative values (%) with the VEGF concentration in the control as 100, and shown as mean±standard error in FIGS. 1 to 3.

[3] = system: FGF7 production in hair papilla cells; experiment: FGF7 production in hair papilla cells (ELISA of culture supernatant); conditions: human hair papilla cells, cultured 3 days, vs control, P<0.05 or P<0.01, FIG. 4
Description: In the same manner as in Experimental Example 1, human hair papilla cells were cultured for 4 days, and seeded on a collagen-coated 48 well plate at a cell density of 1.2×10^4 cells/0.3 mL/well. The cells were cultured for one day in a carbon dioxide incubator (5 volume % carbon dioxide, 37° C.), and used for the evaluation of the FGF7 production amount. For the evaluation of the FGF7 production amount, the same evaluation medium as in Experimental Example 1 was used.
L-ornithine was dissolved in the evaluation medium to prepare a solution.
In the above-mentioned hair papilla cell culture medium on the collagen-coated plate, the medium was replaced with the evaluation medium, the above-mentioned solution of L-ornithine was added at a given concentration, and the cells were cultured for 3 days at 37° C., 5 volume % carbon dioxide (n=3 at each addition concentration).
Similar culture and treatment were performed without adding the solution of L-ornithine, and used as the control.
as §1
The concentration of FGF7 in the supernatant of the culture was measured by thawing the collected supernatant and using the FGF7 Enzyme-Linked ImmunoSorbent Assay (ELISA) kit (Abcam Plc.). […]

[4] = system: human hair papilla cells; experiment: Proliferation of hair papilla cells, ornithine (Cell Counting kit-8); conditions: cultured one day, P<0.05 or P<0.01, FIG. 6
Description: In the same manner as in Experimental Example 1, human hair papilla cells were cultured for 4 days, and seeded on a collagen-coated 96 well plate at a cell density of 2.5×10^3 cells/0.1 mL/well. The cells were cultured for one day in a carbon dioxide incubator (5 volume % carbon dioxide, 37° C.), and used for the evaluation of the proliferation of hair papilla cells. For the evaluation of the proliferation of hair papilla cells, a medium having the same amino acid composition as the evaluation medium used in Experimental Example 1 and other components diluted at a ¼ concentration was used as the evaluation medium.
L-ornithine was dissolved in the above-mentioned evaluation medium to prepare a solution. […]
Then the Cell Counting kit-8 (DOJINDO LABORATORIES) was added to each well by 10 μL, the plate was placed in a carbon dioxide incubator (5 volume % carbon dioxide, 37° C.) for 2 hr, and the absorbance at 450 nm was measured using a microplate reader. […]
The measurement results were converted to relative values (%) with the absorbance in the control as 100, and shown as mean±standard error in FIG. 6.

SMILES: NC(=O)NCCCC(N)C(=O)O [L-citrulline, 2-amino-5-(carbamoylamino)pentanoic acid]
- number of hair papilla cells as compared with the control [1]: significant increase
- addition concentration at which a significant increase in the VEGF production was observed ([2]; P<0.01 or P<0.001, FIG. 1): not less than 4.56 μM

SMILES: NCCCC(N)C(=O)O [L-ornithine, 2,5-diamino pentanoic acid]
- addition concentration at which a significant increase in the FGF7 production amount was observed [3]: not less than 151 μM
- number of hair papilla cells as compared with the control ([4]; 756 μM): significant increase
- number of hair papilla cells as compared with the control ([4]; 3.7 mM): significant increase

SMILES: N[C@@H](Cc1c[nH]c2ccccc12)C(=O)O [L-tryptophan, 2-amino-3-(indolyl)propionic acid]
- addition concentration at which a significant increase in the VEGF production was observed ([2]; P<0.01 or P<0.001, FIGS. 2, 3): not less than 0.01 mM

SMILES: NC(=O)CCC(N)C(=O)O [L-glutamine, 2-amino-4-carbamoylbutanoic acid]
- addition concentration at which a significant increase in the VEGF production was observed ([2]; P<0.01 or P<0.001, FIGS. 2, 3): not less than 0.44 mM
